Test results published in patent US10722491B2, “Phenol compound and combination of same with a benzodiazepine fused to 1,4-dihydropyridine for treating diseases of the central nervous and vascular systems” (UNIVERSIDAD DE LA HABANA, priority 2016, dated 2020).

Key:
[1] = tested on: scopolamine cognitive deficit; assay: Scopolamine-induced dementia, new-object recognition; format: in vivo, rats; conditions: 4 and 8 mg/kg p.o., 1 hour before scopolamine 1 mg/kg i.p.
Description: FIG. 12. Effect of KM-34 on the recognition memory of new objects. In the new-object recognition test, KM-34 (2, 4 and 8 mg/kg, p.o) was administered 1 hour prior to scopolamine (1 mg/kg, i.p.) prior to the training phase. The results are expressed as the discrimination rate of the total time by scanning the object N with respect to F. The data are expressed as mean ± SD (n=8, per group). For statistical analysis, ANOVA and Tukey's multiple comparison test were performed. Different letters differ from each other for p<0.01.
In in vivo models, KM-34 was administered orally (p.o) at a rate of 4 mL/kg body weight. Doses of 2, 4 and 8 mg/kg were evaluated as acute administration 90 minutes before the start of behavioral tests. For administration the compound was suspended in carboxymethylcellulose (CMC) 0.05%. Scopolamine bromide was dissolved in 0.9% saline solution and administered intraperitoneally as a single dose (1 mg/kg, 4 mL/kg body weight) 30 minutes prior to the initiation of the behavioral tests. […]
This trial was conducted as proposed by Capurro et al. (Capurro et al., 2013), in an open field, on two successive days. […] The tests were video-recorded for the analysis of the exploration of the objects, defined by the time of exploration that the animal performs to each object. The discrimination rates between the F and N objects were calculated as: ID=(N−F)/(N+F).

[2] = tested on: animals damaged with 6-OHDA; assay: 6-OHDA Parkinson's model, cylinder test; format: in vivo, rats; conditions: 7 days after 6-OHDA damage
[3] = tested on: occlusion of the middle cerebral artery in rats; assay: Transient middle cerebral artery occlusion, cerebral infarct size (TTC); format: in vivo; conditions: for Total volume of infarction (percentage of the contralateral hemisphere): 1 hour after reperfusion, 90 min occlusion, 23 h reperfusion, vehicle 27.5%
Description: FIG. 13. Acute treatment with KM-34 reduced the volume of infarction edema and deficit in rat behavior after 90 min of middle cerebral artery occlusion (MACA) and 23 hours of reperfusion. The different doses of the compound were administered orally 1 hour after reperfusion. (A) Representative brain coronal sections (2 mm thick) of the sham and ischemic groups treated with vehicle or KM-34 (0.1, 0.5 or 1 mg/kg) and stained with 2,3,5-triphenyltetrazolium (TTC) 2%. The red regions correspond to undamaged tissue and white to ischemic regions. (B) Quantitative analysis of cortical, subcortical and total lesion size. (C) Neurological deficit. The bars represent the mean ± SEM (n=8). Different letters in (A) and * in (B): p<0.05, by ANOVA and post hoc of Newman-Keuls. Scale=10 mm.
The animals were randomly divided into the following groups (n=8 per group): (1) vehicle treated ischemia/reperfusion (I/R) control, (2) KM-34 treated I/R 0.1 mg/kg, (3) I/R treated with KM-34 0.5 mg/kg, (4) I/R treated with KM-34 1 mg/kg, (5) sham-operated vehicle treated and (6) sham—With KM-34 1 mg/kg. In all cases the treatment was administered orally (with an intragastric cannula). […]
Transient cerebral ischemia was performed by the OACM, using the intraluminal filament method. […] After 23 hours of reperfusion, the neurological deficit was evaluated and the animals sacrificed to determine the infarct volume and perform the behavioral evaluations.
Cerebral infarction was determined by staining with TTC, a colorless compound in solution but which, when reduced by dehydrogenases of functional mitochondria, forms a red brick formazan salt. […]
The animals were anesthetized again after the neurological evaluation and were perfused transcardially with 20 mL of saline at 4° C. […] The edema index (volume of the hemisphere ipsilateral to the OACM/volume of the contralateral hemisphere) and the volume of corrected infarction (volume of the lesion/edema index) were calculated to avoid overestimation of the infarct volume by cerebral edema. Infarct volume was expressed as a percentage of the contralateral hemisphere.

CC1(C)OC(=O)C(=Cc2ccc(O)c(O)c2)C(=O)O1 [KM-34, 5-[(3,4-dihydroxyphenyl)methylidene]-2,2-dimethyl-1,3-dioxane-4,6-dione]
Recognition memory, discrimination index of new objects [1]: able to revert the affectation on the learning and the memory of term recognition induced by scopolamine | % asymmetry, cylinder test ([2]; 0.5 mg/kg): no statistically significant difference with respect to the damaged group without treatment | % asymmetry, cylinder test ([2]; 2 mg/kg and 1 mg/kg): equal to the animals (healthy) animals | Total volume of infarction (percentage of the contralateral hemisphere) ([3]; 0.5 mg/kg oral): 15.7% | Total volume of infarction (percentage of the contralateral hemisphere) ([3]; 1 mg/kg oral): 5.3% | Tissue damage or behavioral alterations under basal conditions ([3]; sham group (without OACM), KM-34 1 mg/kg oral): no sign of tissue damage or behavioral alterations
